Data from publication PMC5453931, “Cathelicidin-trypsin inhibitor loop conjugate represents a promising antibiotic candidate with protease stability” (Scientific Reports, 2017).
In brackets after ≈: the same amount, converted by molar mass. Where a SMILES comes first, the peptide text is derived from it. Bridges are numbered along the chain shown (N, C = ends).

What was measured:
[1] = system: 08030209; assay: microbe, parasite or virus in culture; format: cell-based, Arcyria cinerea; details: Fungi; two-fold broth microdilution, 37 °C, 18 h; mean of three independent experiments in duplicates
Description: (§1) A two-fold broth microdilution method described in our previous paper was used to determine the antimicrobial activities of parental and hybrid peptides. More than 30 strains including Gram-negative bacteria, Gram-positive bacteria and fungi were used in the current assay, in which the standard strains were stored in our lab and the clinical strains were collected from local hospitals. Briefly, bacteria were incubated in Mueller-Hinton broth (MH broth) at 37 °C to exponential phase and diluted to 10^6 CFU/mL. A serial dilution of peptide sample were prepared in 96-well microtiter plates (50 μL) and mixed with equal volume of microbial inoculums (50 μL). The plate was slowly shaken in the microbial incubator, and measured at A595 after incubation at 37 °C for 18 h. The minimal concentrations at which no microbial growth occurred were recorded as MIC (minimal inhibitory concentration) values. The traditional antibiotic ampicillin was used as positive control. The results are shown in an average of the MICs obtained from three independent experiments.

[2] = system: Vibrio Parahaemolyticus; assay: MIC, two-fold broth microdilution; format: cell-based; details: Aquatic pathogenic bacteria; two-fold broth microdilution, 37 °C, 18 h; mean of three independent experiments in duplicates
Description: as §1

[3] = system: E. Coli 08032813; assay: MIC, two-fold broth microdilution; format: cell-based; details: Gram-negative; two-fold broth microdilution, MH broth, 37 °C, 18 h; mean of three independent experiments in duplicates
Description: as §1

[4] = system: Staphylococcus epidermidis; assay: MIC, two-fold broth microdilution; format: cell-based; details: Gram-positive; two-fold broth microdilution, MH broth, 37 °C, 18 h; mean of three independent experiments in duplicates
Description: as §1

[5] = system: E. coli 08040726; assay: MIC, two-fold broth microdilution (second listing of the strain number); format: cell-based; details: Gram-negative, MH broth, 37 °C, 18 h, mean of three independent experiments in duplicates
Description: as §1

[6] = system: Candida albicans 08030102; assay: microbe, parasite or virus in culture; format: cell-based; details: Fungi; two-fold broth microdilution, 37 °C, 18 h; mean of three independent experiments in duplicates
Description: as §1

[7] = system: Enterococcus faecium 08052315; assay: microbe, parasite or virus in culture; format: cell-based; details: Gram-positive; two-fold broth microdilution, MH broth, 37 °C, 18 h; mean of three independent experiments in duplicates
Description: as §1

[8] = system: K. Pneumoniae 08040202; assay: microbe, parasite or virus in culture; format: cell-based; details: Gram-negative; two-fold broth microdilution, MH broth, 37 °C, 18 h; mean of three independent experiments in duplicates
Description: as §1

[9] = system: S. Aureus 08032706; assay: microbe, parasite or virus in culture; format: cell-based; details: Gram-positive; two-fold broth microdilution, MH broth, 37 °C, 18 h; mean of three independent experiments in duplicates
Description: as §1

[10] = system: K. Pneumoniae 08031012; assay: microbe, parasite or virus in culture; format: cell-based; details: Gram-negative; two-fold broth microdilution, MH broth, 37 °C, 18 h; mean of three independent experiments in duplicates
Description: as §1

[11] = system: Bacillus subtilis 08042313; assay: microbe, parasite or virus in culture; format: cell-based; details: Gram-positive; two-fold broth microdilution, MH broth, 37 °C, 18 h; mean of three independent experiments in duplicates
Description: as §1

[12] = system: Candida glabrata 08A802; assay: microbe, parasite or virus in culture; format: cell-based; details: Fungi; two-fold broth microdilution, 37 °C, 18 h; mean of three independent experiments in duplicates
Description: as §1

[13] = system: S. Aureus 08032810; assay: microbe, parasite or virus in culture; format: cell-based; details: Gram-positive; two-fold broth microdilution, MH broth, 37 °C, 18 h; mean of three independent experiments in duplicates
Description: as §1

[14] = system: Shigella dysenteriae 0804203; assay: microbe, parasite or virus in culture; format: cell-based; details: Gram-negative; two-fold broth microdilution, MH broth, 37 °C, 18 h; mean of three independent experiments in duplicates
Description: as §1

[15] = system: P. Aeruginosa 08021015; assay: microbe, parasite or virus in culture; format: cell-based; details: Gram-negative; two-fold broth microdilution, MH broth, 37 °C, 18 h; mean of three independent experiments in duplicates
Description: as §1

[16] = system: Vibrio brasiiensis; assay: microbe, parasite or virus in culture; format: cell-based; details: Aquatic pathogenic bacteria; two-fold broth microdilution, 37 °C, 18 h; mean of three independent experiments in duplicates
Description: as §1

[17] = system: Aeromonas sobria; assay: microbe, parasite or virus in culture; format: cell-based; details: Aquatic pathogenic bacteria; two-fold broth microdilution, 37 °C, 18 h; mean of three independent experiments in duplicates
Description: as §1

[18] = system: Aeromonas veronii; assay: microbe, parasite or virus in culture; format: cell-based; details: Aquatic pathogenic bacteria; two-fold broth microdilution, 37 °C, 18 h; mean of three independent experiments in duplicates
Description: as §1

[19] = system: Escherichia coli ATCC25922; assay: microbe, parasite or virus in culture; format: cell-based; details: Gram-negative; two-fold broth microdilution, MH broth, 37 °C, 18 h; mean of three independent experiments in duplicates
Description: as §1

[20] = system: Vibrio cholerae; assay: microbe, parasite or virus in culture; format: cell-based; details: Aquatic pathogenic bacteria; two-fold broth microdilution, 37 °C, 18 h; mean of three independent experiments in duplicates
Description: as §1

[21] = system: E. Coli 08032823; assay: microbe, parasite or virus in culture; format: cell-based; details: Gram-negative; two-fold broth microdilution, MH broth, 37 °C, 18 h; mean of three independent experiments in duplicates
Description: as §1

[22] = molecular target: trypsin; assay: Trypsin inhibition assay (NBLAN hydrolysis, Dixon method); format: biochemical; details: 50 mM Tris–HCl pH 7.8, trypsin 0.1 mg/mL, 5 min pre-incubation at 37 °C, substrate NBLAN 48, 96, 192 μg/mL, 405 nm
Description: The inhibition effect on the hydrolysis of synthetic chromogenic substrate by trypsin was assayed in 50 mM Tris–HCl, pH 7.8 buffer at room temperature. The trypsin of final concentration of 0.1 mg/mL and different amounts of the hybrid peptide (final concentrations ranging from 0 to 0.16 μg/mL) were pre-incubated for 5 min at 37 °C. N-α-Benzoyl-DL-arginine p-nitroanilide hydrochloride (NBLAN) was used as a substrate for trypsin. The reaction was initiated by the addition of NBLAN with a final concentration of 48, 96 and 192 μg/mL, respectively. The formation of yellow product, p-nitroaniline was monitored continuously at 405 nm[61]. The inhibition constant Ki of the hybrid peptides were determined according to the method of Dixon (1953)[62].

Question: Which “MIC Arcyria cinerea 08030209” value [1] does the source give for `CC[C@H](C)[C@@H]1NC(=O)[C@H](CO)NC(=O)[C@H](CCCCN)NC(=O)[C@H]([C@@H](C)O)NC(=O)[C@H](Cc2c[nH]c3ccccc23)NC(=O)[C@@H](N)CSSC[C@@H](C(=O)N[C@@H](CCCCN)C(=O)N[C@@H](Cc2ccccc2)C(=O)N[C@@H](Cc2ccccc2)C(=O)N[C@@H](CCCCN)C(=O)N[C@@H](CCCNC(=N)N)C(=O)N[C@@H](CC(C)C)C(=O)N[C@@H](CC(C)C)C(=O)N[C@@H](CCCCN)C(=O)N[C@@H](CO)C(=O)N[C@H](C(=O)N[C@@H](CCCNC(=N)N)C(=O)N[C@@H](CCCNC(=N)N)C(=O)N[C@@H](C)C(=O)N[C@H](C(=O)N[C@@H](CCCCN)C(=O)N[C@@H](CCCCN)C(=O)N[C@@H](Cc2ccccc2)C(N)=O)C(C)C)C(C)C)NC(=O)[C@@H]2CCCN2C(=O)[C@H](CCCCN)NC(=O)[C@@H]2CCCN2C(=O)[C@@H]2CCCN2C1=O` [TIH3] (H-CWTKSIPPKPCKFFKRLLKSVRRAVKKF-NH2; disulfide 1-11) here?
Answer: — (no detectable activity in MIC assay in dose of 200 µg/mL or in trypsin inhibition assay at concentration of 160 μg/mL)

Question: And the “MIC Vibrio Parahaemolyticus” value [2]?
Answer: 37.5 µg/mL (≈ 11.1 µM)

Question: What about the “MIC E. Coli 08032813” value [3] of the same molecule?
Answer: — (no detectable activity in MIC assay in dose of 200 µg/mL or in trypsin inhibition assay at concentration of 160 μg/mL)

Question: And the “MIC Staphylococcus epidermidis” value [4]?
Answer: — (no detectable activity in MIC assay in dose of 200 µg/mL or in trypsin inhibition assay at concentration of 160 μg/mL)

Question: And the “MIC E. Coli 08040726 (second line with this strain number)” value [5]?
Answer: — (no detectable activity in MIC assay in dose of 200 µg/mL or in trypsin inhibition assay at concentration of 160 μg/mL)

Question: What about the “MIC Candida albicans 08030102” value [6] of the same molecule?
Answer: — (no detectable activity in MIC assay in dose of 200 µg/mL or in trypsin inhibition assay at concentration of 160 μg/mL)

Question: And the “MIC Enterococcus faecium 08052315” value [7]?
Answer: — (no detectable activity in MIC assay in dose of 200 µg/mL or in trypsin inhibition assay at concentration of 160 μg/mL)

Question: And the “MIC K. Pneumoniae 08040202” value [8]?
Answer: — (no detectable activity in MIC assay in dose of 200 µg/mL or in trypsin inhibition assay at concentration of 160 μg/mL)

Question: What about the “MIC S. Aureus 08032706” value [9] of the same molecule?
Answer: — (no detectable activity in MIC assay in dose of 200 µg/mL or in trypsin inhibition assay at concentration of 160 μg/mL)

Question: And the “MIC K. Pneumoniae 08031012” value [10]?
Answer: — (no detectable activity in MIC assay in dose of 200 µg/mL or in trypsin inhibition assay at concentration of 160 μg/mL)

Question: What about the “MIC Bacillus subtilis 08042313” value [11] of the same molecule?
Answer: — (no detectable activity in MIC assay in dose of 200 µg/mL or in trypsin inhibition assay at concentration of 160 μg/mL)

Question: What about the “MIC Candida glabrata 08A802” value [12] of the same molecule?
Answer: — (no detectable activity in MIC assay in dose of 200 µg/mL or in trypsin inhibition assay at concentration of 160 μg/mL)

Question: And the “MIC S. Aureus 08032810” value [13]?
Answer: — (no detectable activity in MIC assay in dose of 200 µg/mL or in trypsin inhibition assay at concentration of 160 μg/mL)

Question: And the “MIC Shigella dysenteriae 0804203” value [14]?
Answer: — (no detectable activity in MIC assay in dose of 200 µg/mL or in trypsin inhibition assay at concentration of 160 μg/mL)

Question: And the “MIC P. Aeruginosa 08021015” value [15]?
Answer: — (no detectable activity in MIC assay in dose of 200 µg/mL or in trypsin inhibition assay at concentration of 160 μg/mL)

Question: And the “MIC Vibrio brasiiensis” value [16]?
Answer: — (no detectable activity in MIC assay in dose of 200 µg/mL or in trypsin inhibition assay at concentration of 160 μg/mL)

Question: And the “MIC Aeromonas sobria” value [17]?
Answer: — (no detectable activity in MIC assay in dose of 200 µg/mL or in trypsin inhibition assay at concentration of 160 μg/mL)

Question: And the “MIC Aeromonas veronii” value [18]?
Answer: — (no detectable activity in MIC assay in dose of 200 µg/mL or in trypsin inhibition assay at concentration of 160 μg/mL)

Question: And the “MIC Escherichia coli ATCC25922” value [19]?
Answer: — (no detectable activity in MIC assay in dose of 200 µg/mL or in trypsin inhibition assay at concentration of 160 μg/mL)

Question: What about the “MIC Vibrio cholerae” value [20] of the same molecule?
Answer: — (no detectable activity in MIC assay in dose of 200 µg/mL or in trypsin inhibition assay at concentration of 160 μg/mL)

Question: And the “MIC E. Coli 08032823” value [21]?
Answer: — (no detectable activity in MIC assay in dose of 200 µg/mL or in trypsin inhibition assay at concentration of 160 μg/mL)

Question: And the Ki [22]?
Answer: 7.5 µM
